ChEMBL document CHEMBL6074649, “An insight into recent developments in imidazole based heterocyclic compounds as anticancer agents: Synthesis, SARs, and mechanism of actions” (Eur J Med Chem, 2024)

Assays:
[1] = Antiproliferative activity against HEK293 cells; assay type: toxicity, cell-based; conditions: human
[2] = tested on: A549; assay: Antiproliferative activity against human A549 cells assessed as reduction in cell growth; assay type: functional, cell-based
[3] = tested on: MCF7; assay: Antiproliferative activity against human MCF7 cells; assay type: functional, cell-based
[4] = tested on: MG-63; assay: Antiproliferative activity against human MG-63 cells; assay type: functional, cell-based
[5] = tested on: HCT-116; assay: Anticancer activity against human HCT-116 cells at 100 uM relative to control; assay type: functional
[6] = tested on: NCI-H1299; assay: Anticancer activity against human NCI-H1299 cells at 100 uM relative to control; assay type: functional
[7] = tested on: PC-3; assay: Anticancer activity against human PC-3 cells at 100 uM relative to control; assay type: functional
[8] = Antiproliferative activity against human BJ cells; assay type: toxicity, cell-based
[9] = tested on: SiHa; assay: Antiproliferative activity against human SiHa cells; assay type: functional, cell-based
[10] = tested on: A549; assay: Antiproliferative activity against human A549 cells; assay type: functional, cell-based
[11] = Cytotoxicity against mouse EMT6/AR1 cells; assay type: functional, cell-based
[12] = tested on: A549; assay: Cytotoxicity against human A549 cells; assay type: functional, cell-based
[13] = tested on: B16-F10; assay: Cytotoxicity against mouse B16-F10 cells; assay type: functional, cell-based
[14] = Cytotoxicity against mouse L929 cells; assay type: toxicity, cell-based
[15] = tested on: HeLa; assay: Cytotoxicity against human HeLa cells; assay type: functional, cell-based
[16] = tested on: MCF7; assay: Cytotoxicity against human MCF7 cells; assay type: functional, cell-based
[17] = Cytotoxicity against human MCF-10A cells; assay type: toxicity, cell-based
[18] = tested on: MDA-MB-231; assay: Antiproliferative activity against human MDA-MB-231 cells assessed as reduction in cell viability after 48 hrs by SRB assay; assay type: functional, cell-based; conditions: MDA-MB-231, 48 h
[19] = Antiproliferative activity against human IGR-39 cells assessed as reduction in cell viability after 48 hrs by SRB assay; assay type: functional, cell-based; conditions: IGR-39, 48 h

## COc1ccc2[nH]c(=O)c(-c3nc(-c4ccccc4)c(-c4ccccc4)[nH]3)cc2c1
[1]
  IC50: 86.5 µM
[2]
  IC50: 39.4 µM
[3]
  IC50: 50.1 µM
[4]
  IC50: 62 µM

## O=C(CS(=O)(=O)NS(=O)(=O)CC(=O)Nc1nc(-c2ccc(Cl)cc2)c[nH]1)Nc1nc(-c2ccc(Cl)cc2)c[nH]1
[5]
  inhibition at 100 µM: 41.4%
[6]
  inhibition at 100 µM: 21.4%
[7]
  inhibition at 100 µM: 32.1%

## CN1CCN(c2ccc(-c3nc(-c4ccc(N5C(=O)c6cccc7c(N8CCN(C)CC8)ccc(c67)C5=O)cc4)[nH]c3-c3ccc(N4CCN(C)CC4)cc3)cc2)CC1
[8]
  IC50: 13.3 µM
[9]
  IC50: 5.4 µM
[10]
  IC50: 6.5 µM

## COc1cc(C(=O)c2[nH]c(N)nc2-c2cccs2)cc(OC)c1OC
[11]
  IC50: 2.43 µM
[12]
  IC50: 0.112 µM
[13]
  IC50: 0.416 µM
[14]
  IC50: 1.66 µM
[15]
  IC50: 0.036 µM
[16]
  IC50: 0.121 µM
[17]
  IC50: 1.89 µM

## CCn1c(-c2ccc(F)cc2)cn(-c2cccc(S(N)(=O)=O)c2)c1=O
[18]
  EC50: 20.5 µM
[19]
  EC50: 27.8 µM
